Source: patent US20230203142A1, “TREATMENT OF METABOLIC DISORDERS THROUGH THE TARGETING OF A NOVEL CIRCULATING HORMONE COMPLEX” (The President and Fellows of Harvard College, priority 2020, published 2023)

Key:
[1] = test system: INS1 cells; assay: Glucose-stimulated insulin secretion (GSIS), INS1 cells; format: cell-based, rat
Protocol: This finding was recapitulated in both primary human islets from multiple non-diabetic donors (FIG. 6B), as well as INS1 cells (FIG. 6C). Human islets from review board approved healthy donors were isolated using the Edmonton protocol and provided by the IsletCore and Clinical Islet Laboratory (University of Alberta, Canada). Donors with a BMI<25 and HbA1c<6.0% were used for experiments. Islets were hand-picked three times and cultured at 37° C. in RPMI media with 10% FBS and 1% Penicillin/Streptomycin overnight before use. For INS1 cells, cells were plated at 8000 cells/well in 96-well plates and incubated overnight prior to experimentation. Insulin secretion assay was performed as above using 200 μl/well for each treatment. Cells were lysed using 80 μl ultrapure water and flash freezing. For siRNA experiments, INS1 cells were allowed to reach confluency before transfection of siRNA (Horizon Discovery; L-090381-02-0005) using Lipofectamine 3000 (Thermo Fischer; L3000015) according to manufacturer protocol for 48 hours prior to assays.
As additional controls, it was explored whether lipid binding was required for FABP4 action. […] FABP4 inhibitor studies were performed using BMS-309403 (10 nM; Sigma #BM0015).
To further elucidate the role of purinergic receptors in this signaling process, a potent and selective P2Y1 inhibitor, MRS2179 (Baurand et al., 2001) was utilized. Cells were pre-treated for P2Y1 inhibitor (100 nM; MRS2179, Tocris #0900) during the pre-incubation period.
To confirm activity of this inhibitor, INS1 cells were treated with increasing concentrations of ADP in the presence or absence of MRS2179. […] This supports the hypothesis that the ADP produced by the NDPK-ADK complex signals through the P2Y1 receptor, treatment of INS1 cells with MRS2179 abolished the increase in GSIS associated with addition of NDPK-ADK, with no effect in the presence of NDPK-ADK/FABP4, consistent with the receptor being inhibited by ATP under these conditions (FIG. 6L). […] Treatment of primary mouse islets with H118N NDPK and WT ADK had no effect on GSIS, confirming the requirement of NDPK kinase activity for the biology (FIG. 6N). Additionally, it was modeled that the inhibitory effect of the NDPK-ADK/FABP4 complex on GSIS is dependent on the production of ATP by ADK, as activated by the presence of FABP4. To test this, an ADK inhibitor was utilized. Cells were pre-treated with ADK inhibitor (2 nM; Santa Cruz #sc-202900) during the pre-incubation period.

[2] = test system: INS1 cells; assay: Cytosolic calcium flux, Fura-2 AM imaging; conditions: 20 mM glucose
Protocol: Cells were pre-treated with P2Y1 activator (0.5 nM; MRS2365 Tocris #2157) during the pre-incubation period. Cells were stimulated with ATP (5 μM; Promega #V915A) or ADP (2.5 μM; Promega #V916A) acutely with the addition of LG and HG KRB during the serial stimulation. Cells were treated with 100 ng/ml recombinant human FABP4 (produced in-house), 200 ng/ml recombinant human ADK (Novus Biologicals, product number NBP1-44382 or R&D Systems, product number 8024-AK-025), or 100 ng/ml recombinant human NDPK-A (Acro Biosystems, product number NM1-H5147) where indicated, for the pre-incubation period, as well as during the glucose stimulation.
Briefly, INS1 cells were plated in imaging disks at 5000 cells/dish and cultured in standard media overnight. Cells were washed with PBS, and incubated in imaging buffer without glucose, with or without calcium containing Fura-2 AM (2 mM; ThermoFisher F1201) for 30 minutes at 37° C. Cells were washed twice with fresh PBS, and placed in lml imaging buffer. Calcium flux was evaluated with the addition of 20 mM glucose, 30 mM KCl, or 1 μM Thapsigargin. Extracellular calcium was added at 1.5 mM. Calcium flux measurements were performed using an epifluorescence system coupled to a Ti-S/L100 inverted microscope L100 with fluorescent light source (X-Cite 120LED System) equipped with Lambda DG-4 Plus for UV ratiometric probes. Excitations at 340 nm and 380 nm were used and an emission of 510 nm. Analysis was performed using ImageJ software. Calcium flux was measured from 50 cells per coverslip.

[3] = test system: CA33 (a-Ab); assay: MST epitope mapping: nested NDPK-A peptides with a-Ab; format: binding
Protocol: To define the binding site of a-Ab on NDPK, a nested series of peptides were generated covering human NDPK-A and interaction of each peptide with a-Ab was evaluated by Microscale Thermophoresis (MST) (FIG. 4D). MST is a technology for the interaction analysis of biomolecules. MST is the directed movement of particles in a microscopic temperature gradient. Any change of the hydration shell of biomolecules due to changes in their structure/conformation results in a relative change of the movement along the temperature gradient and is used to determine binding affinities. MST allows measurement of interactions directly in solution without the need of immobilization to a surface (immobilization-free technology).

[4] = molecular target: T1, recombinant NDPK (Homo sapiens, UniProt P15531, H118N); assay: Recombinant kinase activity assay, NDPK (ADP-Glo/Kinase-Glo); format: biochemical; conditions: kinase activity of NDPK mutant
T1 construct: purchased Acro Biosystems NM1-H5147
T1 sequence (P15531 whole entry H118N): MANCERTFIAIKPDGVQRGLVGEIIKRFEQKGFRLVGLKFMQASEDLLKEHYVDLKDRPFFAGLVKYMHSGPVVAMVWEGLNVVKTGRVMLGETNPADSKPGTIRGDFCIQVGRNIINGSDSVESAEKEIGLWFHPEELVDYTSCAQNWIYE
Protocol: (§1) An on-bead kinase assay was developed to measure the activity of endogenous NDPK and ADK pulled down from serum using a-Ab or c-Ab conjugated beads. Both NDPK and ADK are bi-directional kinases that will produce ATP or ADP depending on the substrates provided (FIGS. 4B-C). Kinase activity assays were performed in 384-well plates in reaction buffer (PBS with 0.1% BSA, 0.01% F-127, 5 mM MgCl2). Experiments with recombinant proteins were performed at final concentrations of 40 μg/ml for ADK and FABP4, and 20 ug/ml for NDPK, and a reaction volume of 10 μl. Antibodies were used at a final concentration of 80 ug/ml. […] Proteins and substrates were incubated for 1 hr at room temperature, and ADP and ATP production were monitored using ADP-Glo and Kinase-Glo kits, respectively, according the manufacturer instructions (V6930 and V6711 Promega, USA). Luminescence was quantified using a SpectraMax Paradigm plate reader 30 min after the addition of substrate. Consistent with the MS results, ADK activity, as measured by generation of ATP, was specifically observed in samples pulled down with a-Ab but not c-Ab (FIG. 5A). […] To test this possibility, the ATP and ADP generating activity of recombinant ADK was assessed in the presence of the proposed complex components.

[5] = test system: primary mouse islets; assay: Glucose-stimulated insulin secretion (GSIS), mouse islets; format: cell-based; conditions: primary / WT mouse islets
Protocol: Primary islet isolation from mice was performed as previously described (Batchuluun et al., 2018; Prentice et al., 2014) and GSIS was assessed following acute treatment with NDPK-ADK in the presence or absence of FABP4. Insulin secretion assays were performed as previously described (Prentice et al., 2014). For primary islets, 20 islets were hand-picked into 1.5 ml tubes, washed twice with Krebs Ringer Buffer (KRB) without glucose, and pre-incubated in 500 μl low glucose (LG; 2.8 mM) KRB for 1 hour at 37° C. KRB was then removed and 250 μl of fresh LG KRB added. Islets were incubated for 20 minutes at 37° C. Supernatant was collected and 250 μl high glucose (HG; 16.7 mM) KRB added. Islets were incubated for 20 minutes at 37° C. In conditions where KCl was used, HG KRB was collected, and 250 μl KC1 (16.7 mM glucose, 30 mM KCl) KRB added. Islets were incubated for 20 minutes at 37° C., and supernatant collected. Following the stimulation protocol, cells were lysed in 100 μl acid ethanol (70% ethanol, 1% HCl in water) and stored at 4° C. overnight. Samples were evaporated using a SpeedVac until dried, and resuspended in 60 μl ultrapure water. DNA was quantified by Nanodrop (ThermoFisher, USA). Insulin from supernatant was quantified using insulin HTRF (Insulin Ultrasensitive Assay kit 62IN2PEH; Cisbio, USA).

[6] = molecular target: T2, recombinant ADK (Homo sapiens, UniProt P55263); assay: Recombinant kinase activity assay, ADK (Kinase-Glo); format: biochemical; conditions: recombinant ADK plus the added component
T2 construct: purchased Novus Biologicals or R&D Systems NBP1-44382 or 8024-AK-025
T2 sequence (P55263 whole entry): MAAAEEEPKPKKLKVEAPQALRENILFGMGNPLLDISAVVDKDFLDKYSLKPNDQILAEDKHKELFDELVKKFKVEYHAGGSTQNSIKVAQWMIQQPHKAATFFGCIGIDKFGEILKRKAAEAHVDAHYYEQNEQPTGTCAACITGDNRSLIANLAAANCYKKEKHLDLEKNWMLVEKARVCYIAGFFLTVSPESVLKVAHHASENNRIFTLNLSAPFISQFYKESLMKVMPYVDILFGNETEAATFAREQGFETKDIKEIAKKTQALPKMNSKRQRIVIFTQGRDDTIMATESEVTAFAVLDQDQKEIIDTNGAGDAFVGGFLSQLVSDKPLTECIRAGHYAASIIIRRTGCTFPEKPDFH
Protocol: as §1

Compound: Nc1ncnc2c1ncn2[C@@H]1O[C@H](COP(=O)(O)OP(=O)(O)O)[C@@H](O)[C@H]1O [ADP]
- GSIS in the presence of the NDPK-ADK/FABP4 complex [1]: potentiated
- insulin secretion / GSIS with exogenous nucleotide [1]: potentiated

Compound: Nc1ncnc2c1ncn2[C@@H]1O[C@H](COP(=O)(O)OP(=O)(O)OP(=O)(O)O)[C@@H](O)[C@H]1O [ATP]
- increase in GSIS with addition of NDPK-ADK [1]: blunted
- insulin secretion / GSIS with exogenous nucleotide [1]: suppressed

Compound: Nc1ncnc2c1ncn2[C@@H]1O[C@H](COP(=O)(O)OP(=O)(O)OP(O)(O)=S)[C@@H](O)[C@H]1O [ATPgS]
- increase in GSIS with addition of NDPK-ADK [1]: more pronounced

Compound: CCc1c(-c2ccccc2)c(-c2ccccc2)nn1-c1ccccc1-c1cccc(OCC(=O)O)c1 [BMS-309403]
- effect on suppressing NDPK-ADK-potentiated GSIS as WT recombinant FABP4 ([1]; FABP4 mutant or FABP4 treated with inhibitor): same effect

Compound: CNc1ncnc2c1ncn2[C@H]1C[C@H](OP(=O)(O)O)[C@@H](COP(=O)(O)O)O1 [MRS2179]
- GSIS in the presence of the NDPK-ADK/FABP4 complex [1]: no effect
- increase in GSIS with addition of NDPK-ADK [1]: abolished
- ADP-stimulated increase in GSIS ([1]; increasing concentrations of ADP): completely inhibited

Compound: CSc1nc(N)c2ncn([C@H]3[C@H](O)[C@H](O)[C@]4(COP(=O)(O)OP(=O)(O)O)C[C@H]34)c2n1 [MRS2365, reference compound]
- extracellular calcium influx in response to glucose [2]: rescued

Compound: GPVVAMVWEGLNVVK [Peptide 8]
- binding with a-Ab (in words) [3]: High affinity binding

Compound: H118N NDPK: kinase-dead H118N NDPK mutant
- capacity to generate ADP [4]: no capacity
- GSIS [5]: no effect

Compound: IKPDGVQRGLVGEII [Peptide 2]
- binding with a-Ab (in words) [3]: Low affinity binding

Compound: NDPK: recombinant human NDPK-A (Acro Biosystems)
- ADK activity to generate ATP [6]: no effect

Compound: VGEIIKRFEQKGFRL [Peptide 3]
- binding with a-Ab (in words) [3]: Low affinity binding
